Experimental findings from patent US9474790B2, “Stable, protracted GLP-1/glucagon receptor co-agonists for medical use” (Novo Nordisk A/S, priority 2013, dated 2016) are described below.

Numbered stars: 1 amine (or outer) side, 2 acyl side, 3 side chain; on linkers, the order of the positions; unused ones are H or OH. Bridge positions count the residues as written; N and C are the ends. Square brackets hold non-standard residues; d marks the D form. Side chains are listed from the residue outwards. Peptide text beside a SMILES is read from it. I, II: the chains in the order shown. * marks the point of attachment. C18 diacid = O=C(O)CCCCCCCCCCCCCCCCC(=O)*; γGlu = O=C(O)[C@H](CCC(=O)[*:2])N[*:1]; Ac4c = NC1(C(=O)O)CCC1; AEEA = NCCOCCOCC(=O)O; Aib = CC(C)(N)C(=O)O

The assay deals with T1, human glucagon receptor (Homo sapiens, UniProt P47871).
T1 construct: expressed in transfected cells; host or cells: BHK cells (parent BHK570, CRE luciferase clone BHK/KZ10-20-48), clone pLJ6'-4-25
T1 sequence (P47871 26-477): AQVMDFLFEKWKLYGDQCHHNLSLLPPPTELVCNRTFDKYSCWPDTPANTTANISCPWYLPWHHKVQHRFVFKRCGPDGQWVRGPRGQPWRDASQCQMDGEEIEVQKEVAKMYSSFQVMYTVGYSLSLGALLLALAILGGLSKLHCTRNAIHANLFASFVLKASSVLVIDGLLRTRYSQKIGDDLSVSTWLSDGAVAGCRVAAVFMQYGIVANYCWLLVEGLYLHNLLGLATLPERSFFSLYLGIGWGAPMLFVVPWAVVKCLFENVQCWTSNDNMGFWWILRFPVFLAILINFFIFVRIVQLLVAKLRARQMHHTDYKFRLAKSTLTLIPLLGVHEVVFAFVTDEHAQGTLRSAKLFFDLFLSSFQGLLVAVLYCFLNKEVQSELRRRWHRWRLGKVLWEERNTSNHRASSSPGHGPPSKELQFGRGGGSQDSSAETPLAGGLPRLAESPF
Nature of the assay: Glucagon receptor binding, 125I-glucagon displacement SPA on isolated membranes. Particulars: displacement of 125I-glucagon from membranes; read-out: IC50 GlucR. As for the experimental part: The purpose of this assay was to test the in vitro receptor binding activity (i.e. affinity) of the glucagon derivatives of the invention. The receptor binding activity is a measure of affinity of a derivative for the human glucagon receptor.
The receptor binding of each compound to the human glucagon receptor was measured in a displacement binding assay. In this type of assay a labelled ligand (in this case 125I-glucagon) is bound to the receptor. Each derivative was added in a series of concentrations to isolated membranes containing the human glucagon receptor and displacement of the labelled ligand is monitored. The receptor binding was reported as the concentration at which half of the labelled ligand is displaced from the receptor, the IC50 value.
In order to test the binding of the derivatives to albumin, the assay may be performed in a very low concentration of serum albumin (max. 0.001% final assay concentration) as well as in the presence of a higher concentration of serum albumin (0.2% final assay concentration). An increase of the IC50 value, in the presence of serum albumin indicates an affinity to serum albumin and represents a method to predict a protracted pharmacokinetic profile of the test substance in animal models.
The following chemicals were used in the assay: DMEM w Glutamax (Gibco 61965-026), Pen/strep (Invitrogen 15140-122), G418 (Invitrogen 10131-027), Versene (Gibco 15040), 1 M Hepes (Gibco 15630), PBS (Invitrogen 14190-094), fetal calf serum (Invitrogen 16140-071), MgCl2 (Merck 1.05832.1000), EDTA (Invitrogen 15575-038), CaCl2 (Sigma, C5080), Tween 20 (Amresco 0850C335), ovalbumin (Sigma A5503), SPA particles (wheat germ agglutinin (WGA) SPA beads, Perkin Elmer RPNQ0001), [125I]-glucagon (produced in-house), OptiPlate™-96 (Packard 6005290).
HME buffer consisted of 25 mM HEPES, 2 mM MgCl2 and 1 mM EDTA, and pH was adjusted to 7.4. Assay buffer consisted of 50 mM HEPES supplemented with 5 mM MgCl2, 1 mM CaCl2, 0.02% Tween 20 and 0.1% Ovalbumin, and pH was adjusted to 7.4.
The cells used in this assay (clone BHK hGCGR A3*25) were BHK cells stable transfected with an expression plasmid containing the cDNA encoding the human glucagon receptor.
The cells were grown at 5% CO2 in DMEM, 10% fetal calf serum, 1% Pen/Strep (Penicillin/Streptomycin) and 1.0 mg/ml of the selection marker G418. To make a membrane preparation the cells were grown to approximately 80% confluence. The cells were washed twice in phosphate-buffered saline and harvested. The cells were pelleted using a brief centrifugation and the cell pellet was kept on ice. Lyse the cells by adding approx. 5 ml HME buffer, mix by pipetting and snap freeze in liquid nitrogen. Thaw quickly and add HME buffer to 10 ml. The cell pellet was homogenised with an ULTRA-THURRAX dispersing instrument for 20-30 sec. The homogenate was centrifuged at 20.000×G, 4° C. for 10 min. The pellet was re-suspended (homogenised) in 1-2 ml HME buffer. The protein concentration was determined. The membranes were aliquoted and snap-frozen in liquid nitrogen and stored at minus 80° C.
1. For the receptor binding assay, 50 μl of the assay buffer was added to each well of an assay plate.
2. Test compounds were serially diluted to give the following concentrations: 8×10EE-7 M, 8×10EE-8 M, 8×10EE-9 M, 8×10EE-10 M, 8×10EE-11 M, 8×10EE-12 M and 8×10EE-13 M. Twenty-five μl were added to appropriate wells in the assay plate.
3. Cell membrane aliquots were thawed and diluted to their working concentration. Fifty μl were added to each well in the assay plate.
4. WGA SPA beads were suspended in assay buffer at 20 mg/ml. The suspension was diluted to 10 mg/ml in assay buffer just prior to addition to the assay plate. Fifty μl were added to each well in the assay plate.
5. The incubation was started by adding 25 μl of 480 pM solution of [125I]-glucagon to each well of the assay plate. A 25 μl aliquot was reserved for measuring total counts/well.
6. The assay plate was incubated for 2 h at 25° C.
7. […]
With `CC(C)C[C@H](NC(=O)[C@H](CC(C)C)NC(=O)[C@H](Cc1c[nH]c2ccccc12)NC(=O)[C@H](CCC(N)=O)NC(=O)[C@@H](NC(=O)[C@H](Cc1ccccc1)NC(=O)[C@H](CCC(=O)O)NC(=O)[C@H](CCC(N)=O)NC(=O)[C@H](C)NC(=O)[C@H](C)NC(=O)[C@H](CCCCN)NC(=O)[C@H](CO)NC(=O)[C@H](CC(=O)O)NC(=O)[C@H](CC(C)C)NC(=O)[C@H](Cc1ccc(O)cc1)NC(=O)[C@H](CCCCN)NC(=O)[C@H](CO)NC(=O)[C@H](CC(C)C)NC(=O)[C@H](CC(=O)O)NC(=O)[C@H](CO)NC(=O)[C@@H](NC(=O)[C@H](Cc1ccccc1)NC(=O)[C@@H](NC(=O)CNC(=O)[C@H](CCC(N)=O)NC(=O)C(C)(C)NC(=O)[C@@H](N)Cc1c[nH]cn1)[C@@H](C)O)[C@@H](C)O)C(C)C)C(=O)N[C@@H](CC(N)=O)C(=O)N[C@@H](CCCCNC(=O)CC[C@H](NC(=O)CC[C@H](NC(=O)COCCOCCNC(=O)COCCOCCNC(=O)CC[C@H](NC(=O)CCCCCCCCCCCCCCCCC(=O)O)C(=O)O)C(=O)O)C(=O)O)C(N)=O` [Example 8, N^ε29-[(4S)-4-carboxy-4-[[(4S)-4-carboxy-4-[[2-[2-[2-[[2-[2-[2-[[(4S)-4-carboxy-4-(17-carboxyheptadecanoylamino)butanoyl]amino]ethoxy]ethoxy]acetyl]amino]ethoxy]ethoxy]acetyl]amino]butanoyl]amino]butanoyl]-[Aib2,Leu10,Lys17,Ala18,Glu21,Leu27,Lys29]-Glucagon amide] (H-H[Aib]QGTFTSDLSKYLDSKAAQEFVQWLLNK([γGlu-γGlu-AEEA-AEEA-γGlu-C18 diacid])-NH2; N-terminus assumed), the concentration for half-maximal inhibition (IC50) – broadly, the concentration that inhibits the measured activity by half – came out at 6.7 nM. Regarding `CC(C)C[C@H](NC(=O)[C@H](Cc1ccc(O)cc1)NC(=O)[C@H](CCCCN)NC(=O)[C@H](CO)NC(=O)[C@H](CC(C)C)NC(=O)[C@H](CC(=O)O)NC(=O)[C@H](CO)NC(=O)[C@@H](NC(=O)[C@H](Cc1ccccc1)NC(=O)[C@@H](NC(=O)CNC(=O)[C@H](Cc1c[nH]cn1)NC(=O)C1(NC(=O)[C@@H](N)Cc2c[nH]cn2)CCC1)[C@@H](C)O)[C@@H](C)O)C(=O)N[C@@H](CCC(=O)O)C(=O)N[C@@H](CO)C(=O)N[C@@H](CCCNC(=N)N)C(=O)N[C@@H](CCCNC(=N)N)C(=O)N[C@@H](C)C(=O)N[C@@H](CCC(N)=O)C(=O)N[C@@H](CC(=O)O)C(=O)N[C@@H](Cc1ccccc1)C(=O)N[C@H](C(=O)N[C@@H](CCC(N)=O)C(=O)N[C@@H](Cc1c[nH]c2ccccc12)C(=O)N[C@@H](CC(C)C)C(=O)N[C@@H](CC(C)C)C(=O)N[C@@H](CCCCNC(=O)CNC(=O)[C@H](CO)NC(=O)[C@H](CCC(=O)O)NC(=O)CNC(=O)[C@H](CO)NC(=O)CC[C@H](NC(=O)CC[C@H](NC(=O)CCCCCCCCCCCCCCCCC(=O)O)C(=O)O)C(=O)O)C(=O)N[C@H](C(N)=O)[C@@H](C)O)C(C)C` [Example 35, N^ε28-[2-[[(2S)-2-[[(2S)-4-carboxy-2-[[2-[[(2S)-2-[[(4S)-4-carboxy-4-[[(4S)-4-carboxy-4-(17-carboxyheptadecanoylamino)butanoyl]amino]butanoyl]amino]-3-hydroxypropanoyl]amino]acetyl]amino]butanoyl]amino]-3-hydroxypropanoyl]amino]acetyl]-[Acb2,His3,Leu10,Glu15, Leu27,Lys28]-Glucagon amide] (I: H-H[Ac4c]HGTFTSDLSKYLESRRAQDFVQWLLKT-NH2 / II: {C18 diacid-γGlu-γGlu}-SGESG; amide I:28-II:C; N-terminus assumed), the IC50 is 0.7 nM. Turning to `CC(C)C[C@H](NC(=O)[C@H](Cc1ccc(O)cc1)NC(=O)[C@H](CCCCN)NC(=O)[C@H](CO)NC(=O)[C@H](CC(C)C)NC(=O)[C@H](CC(=O)O)NC(=O)[C@H](CO)NC(=O)[C@@H](NC(=O)[C@H](Cc1ccccc1)NC(=O)[C@@H](NC(=O)CNC(=O)[C@H](CCC(N)=O)NC(=O)C(C)(C)NC(=O)[C@@H](N)Cc1c[nH]cn1)[C@@H](C)O)[C@@H](C)O)C(=O)N[C@@H](CCC(=O)O)C(=O)N[C@@H](CO)C(=O)N[C@@H](CCCCN)C(=O)N[C@@H](CCCNC(=N)N)C(=O)N[C@@H](C)C(=O)N[C@@H](CCCNC(=N)N)C(=O)N[C@@H](CCC(=O)O)C(=O)N[C@@H](Cc1ccccc1)C(=O)N[C@H](C(=O)N[C@@H](CCC(N)=O)C(=O)N[C@@H](Cc1c[nH]c2ccccc12)C(=O)N[C@@H](CC(C)C)C(=O)N[C@@H](CC(C)C)C(=O)N[C@@H](CCCCNC(=O)CC[C@H](NC(=O)CC[C@H](NC(=O)[C@H](CO)NC(=O)[C@H](CCC(=O)O)NC(=O)[C@H](CO)NC(=O)CC[C@H](NC(=O)CC[C@H](NC(=O)CCCCCCCCCCCCCCCCC(=O)O)C(=O)O)C(=O)O)C(=O)O)C(=O)O)C(=O)N[C@H](C(N)=O)[C@@H](C)O)C(C)C` [Example 54, N^ε28-[(4S)-4-carboxy-4-[[(4S)-4-carboxy-4-[[(2S)-2-[[(2S)-4-carboxy-2-[[(2S)-2-[[(4S)-4-carboxy-4-[[(4S)-4-carboxy-4-(17-carboxyheptadecanoylamino)butanoyl]amino]butanoyl]amino]-3-hydroxypropanoyl]amino]butanoyl]amino]-3-hydroxypropanoyl]amino]butanoyl]amino]butanoyl]-[Aib2,Leu10,Glu15,Lys17,Arg20,Glu21,Leu27,Lys28]-Glucagon amide] (H-H[Aib]QGTFTSDLSKYLESKRAREFVQWLLK([γGlu-γGlu-Ser-Glu-Ser-γGlu-γGlu-C18 diacid])T-NH2; N-terminus assumed), the IC50 turned out to be 1.7 nM.

As for `CC(C)C[C@H](NC(=O)[C@H](Cc1ccc(O)cc1)NC(=O)[C@H](CCCCN)NC(=O)[C@H](CO)NC(=O)[C@H](CC(C)C)NC(=O)[C@H](CC(=O)O)NC(=O)[C@H](CO)NC(=O)[C@@H](NC(=O)[C@H](Cc1ccccc1)NC(=O)[C@@H](NC(=O)CNC(=O)[C@H](CCC(N)=O)NC(=O)C(C)(C)NC(=O)[C@@H](N)Cc1c[nH]cn1)[C@@H](C)O)[C@@H](C)O)C(=O)N[C@@H](CC(=O)O)C(=O)N[C@@H](CCCCNC(=O)CC[C@H](NC(=O)CC[C@H](NC(=O)COCCOCCNC(=O)COCCOCCNC(=O)CC[C@H](NC(=O)CCCCCCCCCCCCCCCCC(=O)O)C(=O)O)C(=O)O)C(=O)O)C(=O)N[C@@H](CCCNC(=N)N)C(=O)N[C@@H](CCCNC(=N)N)C(=O)N[C@@H](C)C(=O)N[C@@H](CCCNC(=N)N)C(=O)N[C@@H](CCC(=O)O)C(=O)N[C@@H](Cc1ccccc1)C(=O)N[C@H](C(=O)N[C@@H](CCC(N)=O)C(=O)N[C@@H](Cc1c[nH]c2ccccc12)C(=O)N[C@@H](CC(C)C)C(=O)N[C@@H](CC(C)C)C(=O)N[C@@H](CC(N)=O)C(=O)N[C@H](C(N)=O)[C@@H](C)O)C(C)C` [Example 10, N^ε16-[(4S)-4-carboxy-4-[[(4S)-4-carboxy-4-[[2-[2-[2-[[2-[2-[2-[[(4S)-4-carboxy-4-(17-carboxyheptadecanoylamino)butanoyl]amino]ethoxy]ethoxy]acetyl]amino]ethoxy]ethoxy]acetyl]amino]butanoyl]amino]butanoyl]-[Aib2,Leu10,Lys16,Arg20,Glu21,Leu27]-Glucagon amide] (H-H[Aib]QGTFTSDLSKYLDK([γGlu-γGlu-AEEA-AEEA-γGlu-C18 diacid])RRAREFVQWLLNT-NH2; N-terminus assumed), the IC50 was 1.2 nM.
